Measurements: PubChem BioAssay (NCI)
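Values below derive from 48-hour exposures of cells grown in 96-well plates, with endpoints linearly interpolated between the two concentrations bracketing the appropriate inhibition level. At the GI50, growth is halved. At the TGI there is no net growth.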

Assays:
Test in all cases: DTP human tumour cell line panel, 48 h
786-0 renal = test system: 786-0 renal
HT29 colon = test system: HT29 colon
NCI-H460 lung = test system: NCI-H460 lung
TK-10 renal = test system: TK-10 renal
MDA-MB-435 = test system: MDA-MB-435
SNB-19 CNS = test system: SNB-19 CNS
MCF7 breast = test system: MCF7 breast
T-47D breast = test system: T-47D breast
HL-60(TB) leukemia = test system: HL-60(TB) leukemia
HCT-15 colon = test system: HCT-15 colon
OVCAR-5 ovarian = test system: OVCAR-5 ovarian
SK-MEL-5 melanoma = test system: SK-MEL-5 melanoma
HCT-116 colon = test system: HCT-116 colon
OVCAR-4 ovarian = test system: OVCAR-4 ovarian
MOLT-4 leukemia = test system: MOLT-4 leukemia
SK-OV-3 ovarian = test system: SK-OV-3 ovarian
EKVX NSCLC = test system: EKVX NSCLC
MALME-3M melanoma = test system: MALME-3M melanoma
NCI-H23 lung = test system: NCI-H23 lung
A549 NSCLC = test system: A549 NSCLC
LOX IMVI melanoma = test system: LOX IMVI melanoma
RPMI-8226 leukemia = test system: RPMI-8226 leukemia
M14 melanoma = test system: M14 melanoma
SK-MEL-2 melanoma = test system: SK-MEL-2 melanoma
U251 CNS = test system: U251 CNS
A498 renal = test system: A498 renal
COLO 205 colon = test system: COLO 205 colon
UACC-257 melanoma = test system: UACC-257 melanoma
SF-539 CNS = test system: SF-539 CNS
IGROV1 ovarian = test system: IGROV1 ovarian
UO-31 renal = test system: UO-31 renal
UACC-62 melanoma = test system: UACC-62 melanoma
PC-3 prostate = test system: PC-3 prostate
SK-MEL-28 melanoma = test system: SK-MEL-28 melanoma
HOP-92 NSCLC = test system: HOP-92 NSCLC
HOP-62 NSCLC = test system: HOP-62 NSCLC
SN12C renal = test system: SN12C renal
ACHN renal = test system: ACHN renal
NCI-H226 lung = test system: NCI-H226 lung
SW-620 colon = test system: SW-620 colon
CAKI-1 renal = test system: CAKI-1 renal
BT-549 breast = test system: BT-549 breast
CCRF-CEM leukemia = test system: CCRF-CEM leukemia
SF-295 CNS = test system: SF-295 CNS
KM12 colon = test system: KM12 colon
HS 578T breast = test system: HS 578T breast
SF-268 CNS = test system: SF-268 CNS
OVCAR-3 ovarian = test system: OVCAR-3 ovarian
MDA-MB-231 breast = test system: MDA-MB-231 breast
DU-145 prostate = test system: DU-145 prostate
HCC-2998 colon = test system: HCC-2998 colon
K-562 leukemia = test system: K-562 leukemia
SNB-75 CNS = test system: SNB-75 CNS
OVCAR-8 ovarian = test system: OVCAR-8 ovarian
NCI/ADR-RES ovarian = test system: NCI/ADR-RES ovarian
MDA-MB-468 breast = test system: MDA-MB-468 breast
RXF 393 renal = test system: RXF 393 renal
NCI-H522 lung = test system: NCI-H522 lung

CN(C)CCOc1ccc(C(=O)C2[C@H](c3ccc(Cl)cc3)[C@@H](c3ccccc3)NC23C(=O)Nc2ccccc23)cc1 (stereo partly specified)
GI50 (786-0 renal): 3.14 µM | TGI (786-0 renal): 5.83 µM | GI50 (HT29 colon): 3.32 µM | TGI (HT29 colon): 7.13 µM | GI50 (NCI-H460 lung): 3.29 µM | TGI (NCI-H460 lung): 6.17 µM | GI50 (TK-10 renal): > 18.5 µM | TGI (TK-10 renal): > 18.5 µM | GI50 (MDA-MB-435): 3.04 µM | TGI (MDA-MB-435): 5.99 µM | GI50 (SNB-19 CNS): 8.07 µM | TGI (SNB-19 CNS): > 18.5 µM | GI50 (MCF7 breast): 3.18 µM | TGI (MCF7 breast): 6.32 µM | GI50 (T-47D breast): 9.41 µM | TGI (T-47D breast): > 18.5 µM | GI50 (HL-60(TB) leukemia): 4.11 µM | TGI (HL-60(TB) leukemia): 11.2 µM | GI50 (HCT-15 colon): 3.68 µM | TGI (HCT-15 colon): 8.25 µM | GI50 (OVCAR-5 ovarian): 4.41 µM | TGI (OVCAR-5 ovarian): > 18.5 µM | GI50 (SK-MEL-5 melanoma): 3.11 µM | TGI (SK-MEL-5 melanoma): 5.99 µM | GI50 (HCT-116 colon): 2.96 µM | TGI (HCT-116 colon): 5.51 µM | GI50 (OVCAR-4 ovarian): 8.79 µM | TGI (OVCAR-4 ovarian): > 18.5 µM | GI50 (MOLT-4 leukemia): 3.3 µM | TGI (MOLT-4 leukemia): 8.62 µM | GI50 (SK-OV-3 ovarian): > 18.5 µM | TGI (SK-OV-3 ovarian): > 18.5 µM | GI50 (EKVX NSCLC): 3.03 µM | TGI (EKVX NSCLC): 6.21 µM | GI50 (MALME-3M melanoma): 2.92 µM | TGI (MALME-3M melanoma): 5.48 µM | GI50 (NCI-H23 lung): 3.95 µM | TGI (NCI-H23 lung): 9.94 µM | GI50 (A549 NSCLC): 5.95 µM | TGI (A549 NSCLC): > 18.5 µM | GI50 (LOX IMVI melanoma): 2.62 µM | TGI (LOX IMVI melanoma): 5.02 µM | GI50 (RPMI-8226 leukemia): 3.95 µM | TGI (RPMI-8226 leukemia): 11.3 µM | GI50 (M14 melanoma): 2.89 µM | TGI (M14 melanoma): 5.69 µM | GI50 (SK-MEL-2 melanoma): 3.6 µM | TGI (SK-MEL-2 melanoma): 7.11 µM | GI50 (U251 CNS): 3.13 µM | TGI (U251 CNS): 6.07 µM | GI50 (A498 renal): > 18.5 µM | TGI (A498 renal): > 18.5 µM | GI50 (COLO 205 colon): 3.58 µM | TGI (COLO 205 colon): 6.93 µM | GI50 (UACC-257 melanoma): 3.38 µM | TGI (UACC-257 melanoma): 7.54 µM | GI50 (SF-539 CNS): 3.14 µM | TGI (SF-539 CNS): 6.01 µM | GI50 (IGROV1 ovarian): 10.4 µM | TGI (IGROV1 ovarian): > 18.5 µM | GI50 (UO-31 renal): 6.9 µM | TGI (UO-31 renal): > 18.5 µM | GI50 (UACC-62 melanoma): 2.88 µM | TGI (UACC-62 melanoma): 5.59 µM | GI50 (PC-3 prostate): 3.77 µM | TGI (PC-3 prostate): 11.2 µM | GI50 (SK-MEL-28 melanoma): 3.05 µM | TGI (SK-MEL-28 melanoma): 5.62 µM | GI50 (HOP-92 NSCLC): 3.03 µM | TGI (HOP-92 NSCLC): 12.7 µM | GI50 (HOP-62 NSCLC): 6.6 µM | TGI (HOP-62 NSCLC): > 18.5 µM | GI50 (SN12C renal): 10.6 µM | TGI (SN12C renal): > 18.5 µM | GI50 (ACHN renal): 4.33 µM | TGI (ACHN renal): 11.7 µM | GI50 (NCI-H226 lung): 7.97 µM | TGI (NCI-H226 lung): > 18.5 µM | GI50 (SW-620 colon): 3.13 µM | TGI (SW-620 colon): 6.05 µM | GI50 (CAKI-1 renal): 4.5 µM | TGI (CAKI-1 renal): > 18.5 µM | GI50 (BT-549 breast): > 18.5 µM | TGI (BT-549 breast): > 18.5 µM | GI50 (CCRF-CEM leukemia): 3.98 µM | TGI (CCRF-CEM leukemia): 13.2 µM | GI50 (SF-295 CNS): 3.22 µM | TGI (SF-295 CNS): 6.52 µM | GI50 (KM12 colon): 3.56 µM | TGI (KM12 colon): 7.3 µM | GI50 (HS 578T breast): 3.88 µM | TGI (HS 578T breast): > 18.5 µM | GI50 (SF-268 CNS): 9.62 µM | TGI (SF-268 CNS): > 18.5 µM | GI50 (OVCAR-3 ovarian): 3.41 µM | TGI (OVCAR-3 ovarian): 7.55 µM | GI50 (MDA-MB-231 breast): 3.55 µM | TGI (MDA-MB-231 breast): 10.2 µM | GI50 (DU-145 prostate): 5.78 µM | TGI (DU-145 prostate): > 18.5 µM | GI50 (HCC-2998 colon): 3.07 µM | TGI (HCC-2998 colon): 5.76 µM | GI50 (K-562 leukemia): 3.86 µM | TGI (K-562 leukemia): 11.7 µM | GI50 (SNB-75 CNS): 4.58 µM | TGI (SNB-75 CNS): > 18.5 µM | GI50 (OVCAR-8 ovarian): 4.56 µM | TGI (OVCAR-8 ovarian): 11 µM | GI50 (NCI/ADR-RES ovarian): 5.9 µM | TGI (NCI/ADR-RES ovarian): > 18.5 µM | GI50 (MDA-MB-468 breast): 2.91 µM | TGI (MDA-MB-468 breast): 5.74 µM | GI50 (RXF 393 renal): 2.88 µM | TGI (RXF 393 renal): 12 µM | GI50 (NCI-H522 lung): 7.52 µM | TGI (NCI-H522 lung): > 18.5 µM
